Test results reported in paper PMC7560342, “In Vitro and In Vivo Evaluation of the Toxic Effects of Dodecylguanidine Hydrochloride” (Toxics, 2020).

What was measured:
[1] = test system: A549 cells; experiment: cells; type: cell-based, Human; conditions: 24 h exposure, WST assay
Description: Human adenocarcinomic alveolar epithelial (A549) cells were obtained from the Korea Cell Line Bank (Seoul, Korea). Cells were grown in RPMI 1640 medium (Thermo Fisher Scientific, Waltham, MA, USA), containing 10% heat-inactivated fetal bovine serum (Thermo Fisher Scientific, Waltham, MA, USA) and 1% penicillin-streptomycin (Thermo Fisher Scientific, Waltham, MA, USA) under standard cell culture conditions (37 °C, 5% CO2, and 90% humidity).
A549 cells (1 × 10^4 cells) were incubated in 96-well plates overnight, and various concentrations (1, 10, 100, 1000, and 5000 μg/mL) of the eight selected chemicals were added to the cell culture medium. After 24 h of incubation, cell morphology was observed by optical microscopy, and cell viability was evaluated using EZ-Cytox kit (DoGenBio, Seoul, Korea) by quantifying purple formazan crystals. The membrane integrity was examined using an EZ-lactate dehydrogenase (LDH) kit (DoGenBio, Seoul, Korea) to measure the LDH level released from the cytosol into the culture medium. Absorbance was measured using a microplate reader (Tecan, Salzburg, Austria) at a wavelength of 450 nm.

[2] = test system: A549 cells; experiment: Colony formation (clonogenic) assay; type: cell-based, Human; conditions: 10 days
Description: A clonogenic assay was performed by modifying the method of Franken et al.. Briefly, the cells were incubated overnight in six-well plates, at a density of 200 cells per well. DGH (0.00313, 0.00625, 0.0125, 0.025, 0.05, 0.1, and 0.2 μg/mL) and CGP (0.313, 0.625, 1.25, 2.5, 5, 10, and 20 μg/mL) were incubated with the cells for ten days. After incubation, the medium was removed, the cells were washed with phosphate-buffered saline (PBS), fixed with methanol for 10 min on ice, and stained with crystal violet (0.5% crystal violet in 20% methanol). The number of colonies was quantified using light microscopy (Olympus Co., Tokyo, Japan).

[3] = test system: Sprague-Dawley (SD) rats; experiment: Histopathology of nasal cavity and lung after acute inhalation; type: in vivo, rat; conditions: High 68 mg/m^3, 4 h; for Lung: Cell infiltration, terminal bronchiole/alveolar duct, neutrophils/macrophages / Lung: Intraluminal cell debris, terminal bronchiole/alveolar duct / Lung: No specific lesion / Nasal cavity Level 1: Acute inflammation with necrosis, focal / Nasal cavity Level 1: Cell infiltration, lymphocytes, focal / Nasal cavity Level 1: No specific lesion / Nasal cavity Level 2: Acute inflammation with necrosis, focal / Nasal cavity Level 2: Cell infiltration, lymphocytes, focal / Nasal cavity Level 2: No specific lesion / Nasal cavity Level 3: Cell infiltration, lymphocytes, focal / Nasal cavity Level 3: No specific lesion / Nasal cavity Level 4: Cell infiltration, lymphocytes, focal / Nasal cavity Level 4: No specific lesion: cases (percentage) of 5 examined; for Lung: Cell infiltration, terminal bronchiole/alveolar duct, neutrophils/macrophages; Grade: minimal / Lung: Intraluminal cell debris, terminal bronchiole/alveolar duct; Grades: minimal / Nasal cavity Level 1: Acute inflammation with necrosis, focal; Grade: mild / Nasal cavity Level 1: Acute inflammation with necrosis, focal; Grade: minimal / Nasal cavity Level 1: Cell infiltration, lymphocytes, focal; Grade: minimal / Nasal cavity Level 2: Acute inflammation with necrosis, focal; Grade: mild / Nasal cavity Level 2: Acute inflammation with necrosis, focal; Grade: minimal / Nasal cavity Level 2: Cell infiltration, lymphocytes, focal; Grade: minimal / Nasal cavity Level 3: Cell infiltration, lymphocytes, focal; Grade: minimal / Nasal cavity Level 4: Cell infiltration, lymphocytes, focal; Grade: minimal: number of cases
Description: The inhalation aerosols of the DGH solutions were generated using an atomizer with a clean air flow of 250 L/min. For the acute inhalation exposure study, the rats were exposed to 7.8 mg/m^3, 23 mg/m^3, and 70 mg/m^3 DGH for 4 h in the low, middle, and high exposure groups, respectively, and the control rats were exposed to clean air. In the acute toxicity test, all the rats in each group were sacrificed immediately after exposure. Temperature, humidity, air flow, and air pressure were monitored during the exposure using a Model VT3-X15 environmental controller (Sibata, Saitama, Japan). The concentration of DGH was analyzed by sampling the chamber air using a SIP-32L (Sibata, Saitama, Japan) and measuring the weight of the membranes (T60A20, Φ55). The mass median aerodynamic diameter (MMAD) and geometric standard deviation (GSD) of DGH in the exposure chamber were measured using an Andersen cascade impactor (AN-200, Sibata, Saitama, Japan).
After the inhalation of DGH for 4 h, the animals were euthanized. After gross examination, the left lung and nasal cavity of the rats in the control and high-exposure groups were fixed in 10% neutral buffered formalin. The nasal cavity was decalcified with a decalcification solution and then cross-sectioned into four levels as follows: level 1 (posterior part of the upper incisors), level 2 (incisive papilla), level 3 (second palatine crest), level 4 (first upper molar teeth). Following routine tissue processing, the tissues were embedded in paraffin and sectioned into 3 μm thick sections. The tissue sections were stained with hematoxylin and eosin (H&E), and then examined under a light microscope (Olympus BX41, Tokyo, Japan). The lesions were graded according to severity by pathologists.

CCCCCCCCCCCCN=C(N)N.Cl [DGH, Dodecylguanidine hydrochloride]
IC50 (half inhibitory concentration by cell viability assay) [1]: 0.39 mg/L | Total number of colonies ([2]; DGH 0.00313–0.2 μg/mL, CGP 0.313–20 μg/mL): dramatic decrease | Reduction in colony formation compared to the control ([2]; DGH 0.025 μg/mL): approximately 50% | Lung: Cell infiltration, terminal bronchiole/alveolar duct, neutrophils/macrophages ([3]; female): 3(60.0) | Lung: Intraluminal cell debris, terminal bronchiole/alveolar duct ([3]; female): 1(20.0) | Lung: No specific lesion ([3]; female): 1(20.0) | Nasal cavity Level 1: Acute inflammation with necrosis, focal ([3]; female): 1(20.0) | Nasal cavity Level 1: Cell infiltration, lymphocytes, focal ([3]; female): 0(0.00) | Nasal cavity Level 1: No specific lesion ([3]; female): 4(80.0) | Nasal cavity Level 2: Acute inflammation with necrosis, focal ([3]; female): 0(0.00) | Nasal cavity Level 2: Cell infiltration, lymphocytes, focal ([3]; female): 0(0.00) | Nasal cavity Level 2: No specific lesion ([3]; female): 5(100) | Nasal cavity Level 3: Cell infiltration, lymphocytes, focal ([3]; female): 1(20.0) | Nasal cavity Level 3: No specific lesion ([3]; female): 4(80.0) | Nasal cavity Level 4: Cell infiltration, lymphocytes, focal ([3]; female): 2(40.0) | Nasal cavity Level 4: No specific lesion ([3]; female): 3(60.0) | Lung: Cell infiltration, terminal bronchiole/alveolar duct, neutrophils/macrophages; Grade: minimal ([3]; female): 3 | Lung: Intraluminal cell debris, terminal bronchiole/alveolar duct; Grades: minimal ([3]; female): 1 | Nasal cavity Level 1: Acute inflammation with necrosis, focal; Grade: mild ([3]; female): 0 | Nasal cavity Level 1: Acute inflammation with necrosis, focal; Grade: minimal ([3]; female): 1 | Nasal cavity Level 1: Cell infiltration, lymphocytes, focal; Grade: minimal ([3]; female): 0 | Nasal cavity Level 2: Acute inflammation with necrosis, focal; Grade: mild ([3]; female): 0 | Nasal cavity Level 2: Acute inflammation with necrosis, focal; Grade: minimal ([3]; female): 0 | Nasal cavity Level 2: Cell infiltration, lymphocytes, focal; Grade: minimal ([3]; female): 0 | Nasal cavity Level 3: Cell infiltration, lymphocytes, focal; Grade: minimal ([3]; female): 1 | Nasal cavity Level 4: Cell infiltration, lymphocytes, focal; Grade: minimal ([3]; female): 2 | Lung: Cell infiltration, terminal bronchiole/alveolar duct, neutrophils/macrophages ([3]; male): 5(100) | Lung: Intraluminal cell debris, terminal bronchiole/alveolar duct ([3]; male): 1(20.0) | Lung: No specific lesion ([3]; male): 0(0.00) | Nasal cavity Level 1: Acute inflammation with necrosis, focal ([3]; male): 1(20.0) | Nasal cavity Level 1: Cell infiltration, lymphocytes, focal ([3]; male): 0(0.00) | Nasal cavity Level 1: No specific lesion ([3]; male): 4(80.0) | Nasal cavity Level 2: Acute inflammation with necrosis, focal ([3]; male): 1(20.0) | Nasal cavity Level 2: Cell infiltration, lymphocytes, focal ([3]; male): 0(0.00) | Nasal cavity Level 2: No specific lesion ([3]; male): 4(80.0) | Nasal cavity Level 3: Cell infiltration, lymphocytes, focal ([3]; male): 2(40.0) | Nasal cavity Level 3: No specific lesion ([3]; male): 3(60.0) | Nasal cavity Level 4: Cell infiltration, lymphocytes, focal ([3]; male): 0(0.00) | Nasal cavity Level 4: No specific lesion ([3]; male): 5(100) | Lung: Cell infiltration, terminal bronchiole/alveolar duct, neutrophils/macrophages; Grade: minimal ([3]; male): 5 | Lung: Intraluminal cell debris, terminal bronchiole/alveolar duct; Grades: minimal ([3]; male): 1 | Nasal cavity Level 1: Acute inflammation with necrosis, focal; Grade: mild ([3]; male): 1 | Nasal cavity Level 1: Acute inflammation with necrosis, focal; Grade: minimal ([3]; male): 0 | Nasal cavity Level 1: Cell infiltration, lymphocytes, focal; Grade: minimal ([3]; male): 0 | Nasal cavity Level 2: Acute inflammation with necrosis, focal; Grade: mild ([3]; male): 1 | Nasal cavity Level 2: Acute inflammation with necrosis, focal; Grade: minimal ([3]; male): 0 | Nasal cavity Level 2: Cell infiltration, lymphocytes, focal; Grade: minimal ([3]; male): 0 | Nasal cavity Level 3: Cell infiltration, lymphocytes, focal; Grade: minimal ([3]; male): 2 | Nasal cavity Level 4: Cell infiltration, lymphocytes, focal; Grade: minimal ([3]; male): 0
